In ChEMBL document CHEMBL3885861, “Open TG-GATES”:

Species: Rattus norvegicus
Experiment: Open TG-GATES - Regimen: Single
Type: toxicity, organism-based, Sprague-Dawley
Parameters: regimen Single, gender Male, age 6 weeks
Settings: in vivo, po, route gavage; for APTT / Bas / Eos / Fbg / Hb / Ht / Lym / MCH / MCHC / MCV / Mono / Neu / PT / Plat / RBC / Ret / WBC: tissue Blood; for KIDNEY_L / KIDNEY_R / KIDNEY_TOTAL: tissue Kidney; for LIVER: tissue Liver; for A/G / ALP / ALT / AST / BUN / CRE / Ca / Cl / DBIL / GLC / IP / K / LDH / Na / PL / RALB / TBIL / TC / TG / TP / gamma-GTP: tissue Plasma
[1] = 30 mg/kg, 3 h, dose level Middle
[2] = 30 mg/kg, 6 h, dose level Middle
[3] = 30 mg/kg, 9 h, dose level Middle
[4] = 30 mg/kg, 24 h, dose level Middle
[5] = 100 mg/kg, 3 h, dose level High
[6] = 100 mg/kg, 6 h, dose level High
[7] = 100 mg/kg, 9 h, dose level High
[8] = 100 mg/kg, 24 h, dose level High

OCCOCCN1CCN(C(c2ccccc2)c2ccc(Cl)cc2)CC1 (centres undefined) [HYDROXYZINE]
TERMINAL_BW [1]: 193.6 g
APTT [1]: 15.6 s
Bas [1]: 0.2%
Eos [1]: 0.8%
Fbg [1]: 288.4 mg/dL
Hb [1]: 13 g/dL
Ht [1]: 40.6%
Lym [1]: 75.4%
MCH [1]: 21.5 pg
MCHC [1]: 31.9%
MCV [1]: 67.3 fL
Mono [1]: 3.4%
Neu [1]: 19.6%
PT [1]: 15.6 s
Plat [1]: 107 x10_4/uL
RBC [1]: 604.4 x10_4/ul
Ret [1]: 8.9%
WBC [1]: 83.3 x10_2/uL
KIDNEY_L [1]: 0.9 g
KIDNEY_R [1]: 0.9 g
KIDNEY_TOTAL [1]: 1.8 g
LIVER [1]: 8.7 g
A/G [1]: 0.8
ALP [1]: 1908.4 IU/L
ALT [1]: 42.4 IU/L
AST [1]: 74.8 IU/L
BUN [1]: 9.2 mg/dL
CRE [1]: 0.2 mg/dL
Ca [1]: 10.9 mg/dL
Cl [1]: 106.2 meq/L
DBIL [1]: 0.012 mg/dL
GLC [1]: 173.4 mg/dL
IP [1]: 9.1 mg/dL
K [1]: 4.4 meq/L
LDH [1]: 76 IU/L
Na [1]: 142 meq/L
PL [1]: 140 mg/dL
RALB [1]: 2.5 g/dL
TBIL [1]: 0.058 mg/dL
TC [1]: 78.6 mg/dL
TG [1]: 33.2 mg/dL
TP [1]: 5.4 g/dL
gamma-GTP [1]: 1 IU/L
TERMINAL_BW [2]: 192 g
APTT [2]: 15.5 s
Bas [2]: 0.2%
Eos [2]: 0.6%
Fbg [2]: 289.4 mg/dL
Hb [2]: 12.9 g/dL
Ht [2]: 39.9%
Lym [2]: 78.8%
MCH [2]: 21.4 pg
MCHC [2]: 32.2%
MCV [2]: 66.4 fL
Mono [2]: 3%
Neu [2]: 16.8%
PT [2]: 15.1 s
Plat [2]: 115.9 x10_4/uL
RBC [2]: 601.6 x10_4/ul
Ret [2]: 8.8%
WBC [2]: 67.5 x10_2/uL
KIDNEY_L [2]: 0.9 g
KIDNEY_R [2]: 0.9 g
KIDNEY_TOTAL [2]: 1.8 g
LIVER [2]: 8.4 g
A/G [2]: 0.9
ALP [2]: 1397.6 IU/L
ALT [2]: 38.8 IU/L
AST [2]: 73.6 IU/L
BUN [2]: 8.4 mg/dL
CRE [2]: 0.2 mg/dL
Ca [2]: 10.9 mg/dL
Cl [2]: 105.8 meq/L
DBIL [2]: 0.01 mg/dL
GLC [2]: 180.4 mg/dL
IP [2]: 10.5 mg/dL
K [2]: 4.3 meq/L
LDH [2]: 69.2 IU/L
Na [2]: 142.6 meq/L
PL [2]: 141.8 mg/dL
RALB [2]: 2.5 g/dL
TBIL [2]: 0.064 mg/dL
TC [2]: 83.2 mg/dL
TG [2]: 40.6 mg/dL
TP [2]: 5.5 g/dL
gamma-GTP [2]: 0.8 IU/L
TERMINAL_BW [3]: 190.8 g
APTT [3]: 15.9 s
Bas [3]: 0%
Eos [3]: 0.8%
Fbg [3]: 281.8 mg/dL
Hb [3]: 12.9 g/dL
Ht [3]: 40%
Lym [3]: 79%
MCH [3]: 21.7 pg
MCHC [3]: 32.3%
MCV [3]: 67.1 fL
Mono [3]: 2.6%
Neu [3]: 17.2%
PT [3]: 15.4 s
Plat [3]: 104.8 x10_4/uL
RBC [3]: 595.6 x10_4/ul
Ret [3]: 8.8%
WBC [3]: 60.3 x10_2/uL
KIDNEY_L [3]: 0.9 g
KIDNEY_R [3]: 0.9 g
KIDNEY_TOTAL [3]: 1.7 g
LIVER [3]: 8.2 g
A/G [3]: 0.9
ALP [3]: 1266.8 IU/L
ALT [3]: 38 IU/L
AST [3]: 70.2 IU/L
BUN [3]: 9 mg/dL
CRE [3]: 0.2 mg/dL
Ca [3]: 10.7 mg/dL
Cl [3]: 107 meq/L
DBIL [3]: 0.01 mg/dL
GLC [3]: 171.6 mg/dL
IP [3]: 10.2 mg/dL
K [3]: 4 meq/L
LDH [3]: 83.6 IU/L
Na [3]: 142.8 meq/L
PL [3]: 127.8 mg/dL
RALB [3]: 2.5 g/dL
TBIL [3]: 0.06 mg/dL
TC [3]: 67.6 mg/dL
TG [3]: 43 mg/dL
TP [3]: 5.4 g/dL
gamma-GTP [3]: 1 IU/L
TERMINAL_BW [4]: 210 g
APTT [4]: 16.7 s
Bas [4]: 0.2%
Eos [4]: 0.8%
Fbg [4]: 268 mg/dL
Hb [4]: 12.7 g/dL
Ht [4]: 39.4%
Lym [4]: 74.6%
MCH [4]: 21.3 pg
MCHC [4]: 32.3%
MCV [4]: 65.9 fL
Mono [4]: 3.8%
Neu [4]: 20.4%
PT [4]: 16.1 s
Plat [4]: 122 x10_4/uL
RBC [4]: 599.2 x10_4/ul
Ret [4]: 8%
WBC [4]: 75.2 x10_2/uL
KIDNEY_L [4]: 0.9 g
KIDNEY_R [4]: 0.9 g
KIDNEY_TOTAL [4]: 1.8 g
LIVER [4]: 10.1 g
A/G [4]: 0.8
ALP [4]: 1659 IU/L
ALT [4]: 45.8 IU/L
AST [4]: 68.6 IU/L
BUN [4]: 14 mg/dL
CRE [4]: 0.2 mg/dL
Ca [4]: 11.2 mg/dL
Cl [4]: 106.6 meq/L
DBIL [4]: 0.018 mg/dL
GLC [4]: 188.2 mg/dL
IP [4]: 7.9 mg/dL
K [4]: 4.1 meq/L
LDH [4]: 75.2 IU/L
Na [4]: 142.8 meq/L
PL [4]: 153.4 mg/dL
RALB [4]: 2.6 g/dL
TBIL [4]: 0.054 mg/dL
TC [4]: 79.2 mg/dL
TG [4]: 82 mg/dL
TP [4]: 5.6 g/dL
gamma-GTP [4]: 1 IU/L
TERMINAL_BW [5]: 192.6 g
APTT [5]: 16.4 s
Bas [5]: 0.2%
Eos [5]: 0.8%
Fbg [5]: 276.2 mg/dL
Hb [5]: 12.4 g/dL
Ht [5]: 38.5%
Lym [5]: 79.6%
MCH [5]: 21.5 pg
MCHC [5]: 32.3%
MCV [5]: 66.5 fL
Mono [5]: 2.8%
Neu [5]: 16%
PT [5]: 16 s
Plat [5]: 107.8 x10_4/uL
RBC [5]: 579.6 x10_4/ul
Ret [5]: 9.2%
WBC [5]: 66.5 x10_2/uL
KIDNEY_L [5]: 0.9 g
KIDNEY_R [5]: 0.9 g
KIDNEY_TOTAL [5]: 1.8 g
LIVER [5]: 8.5 g
A/G [5]: 0.9
ALP [5]: 1704.8 IU/L
ALT [5]: 45.4 IU/L
AST [5]: 78 IU/L
BUN [5]: 10.2 mg/dL
CRE [5]: 0.2 mg/dL
Ca [5]: 10.7 mg/dL
Cl [5]: 105.8 meq/L
DBIL [5]: 0.008 mg/dL
GLC [5]: 167.2 mg/dL
IP [5]: 9.5 mg/dL
K [5]: 4.4 meq/L
LDH [5]: 107.6 IU/L
Na [5]: 142.4 meq/L
PL [5]: 132.4 mg/dL
RALB [5]: 2.5 g/dL
TBIL [5]: 0.048 mg/dL
TC [5]: 65.8 mg/dL
TG [5]: 40 mg/dL
TP [5]: 5.4 g/dL
gamma-GTP [5]: 1 IU/L
TERMINAL_BW [6]: 190.6 g
APTT [6]: 16.5 s
Bas [6]: 0%
Eos [6]: 0.8%
Fbg [6]: 260.2 mg/dL
Hb [6]: 12.8 g/dL
Ht [6]: 39.9%
Lym [6]: 80.4%
MCH [6]: 21.2 pg
MCHC [6]: 32.1%
MCV [6]: 65.8 fL
Mono [6]: 2.6%
Neu [6]: 15.6%
PT [6]: 16 s
Plat [6]: 118.2 x10_4/uL
RBC [6]: 606.4 x10_4/ul
Ret [6]: 8.5%
WBC [6]: 87.3 x10_2/uL
KIDNEY_L [6]: 0.9 g
KIDNEY_R [6]: 0.9 g
KIDNEY_TOTAL [6]: 1.8 g
LIVER [6]: 7.9 g
A/G [6]: 0.8
ALP [6]: 1674.2 IU/L
ALT [6]: 39.8 IU/L
AST [6]: 78.2 IU/L
BUN [6]: 8.6 mg/dL
CRE [6]: 0.2 mg/dL
Ca [6]: 10.7 mg/dL
Cl [6]: 106.8 meq/L
DBIL [6]: 0.01 mg/dL
GLC [6]: 180.8 mg/dL
IP [6]: 9.7 mg/dL
K [6]: 4.2 meq/L
LDH [6]: 64.2 IU/L
Na [6]: 141.8 meq/L
PL [6]: 121.8 mg/dL
RALB [6]: 2.4 g/dL
TBIL [6]: 0.062 mg/dL
TC [6]: 63.8 mg/dL
TG [6]: 28 mg/dL
TP [6]: 5.3 g/dL
gamma-GTP [6]: 1 IU/L
TERMINAL_BW [7]: 190.3 g
APTT [7]: 15.9 s
Bas [7]: 0.2%
Eos [7]: 0.8%
Fbg [7]: 288.6 mg/dL
Hb [7]: 13 g/dL
Ht [7]: 40.5%
Lym [7]: 78.8%
MCH [7]: 21.5 pg
MCHC [7]: 32%
MCV [7]: 67.2 fL
Mono [7]: 2.8%
Neu [7]: 16.6%
PT [7]: 15.6 s
Plat [7]: 116.3 x10_4/uL
RBC [7]: 603.4 x10_4/ul
Ret [7]: 8.6%
WBC [7]: 75.7 x10_2/uL
KIDNEY_L [7]: 0.9 g
KIDNEY_R [7]: 0.9 g
KIDNEY_TOTAL [7]: 1.8 g
LIVER [7]: 7.7 g
A/G [7]: 0.9
ALP [7]: 1671.6 IU/L
ALT [7]: 36.2 IU/L
AST [7]: 76.6 IU/L
BUN [7]: 8.2 mg/dL
CRE [7]: 0.2 mg/dL
Ca [7]: 10.6 mg/dL
Cl [7]: 106.6 meq/L
DBIL [7]: 0.016 mg/dL
GLC [7]: 182.4 mg/dL
IP [7]: 10.6 mg/dL
K [7]: 4.3 meq/L
LDH [7]: 63 IU/L
Na [7]: 142 meq/L
PL [7]: 124.4 mg/dL
RALB [7]: 2.5 g/dL
TBIL [7]: 0.066 mg/dL
TC [7]: 64.6 mg/dL
TG [7]: 34.2 mg/dL
TP [7]: 5.4 g/dL
gamma-GTP [7]: 1 IU/L
TERMINAL_BW [8]: 198.7 g
APTT [8]: 16.8 s
Bas [8]: 0%
Eos [8]: 0.8%
Fbg [8]: 253.6 mg/dL
Hb [8]: 13.3 g/dL
Ht [8]: 40.4%
Lym [8]: 78.4%
MCH [8]: 22.2 pg
MCHC [8]: 32.9%
MCV [8]: 67.4 fL
Mono [8]: 3.6%
Neu [8]: 16.4%
PT [8]: 16.8 s
Plat [8]: 123.7 x10_4/uL
RBC [8]: 599.6 x10_4/ul
Ret [8]: 7.7%
WBC [8]: 74.7 x10_2/uL
KIDNEY_L [8]: 0.9 g
KIDNEY_R [8]: 0.9 g
KIDNEY_TOTAL [8]: 1.9 g
LIVER [8]: 9 g
A/G [8]: 0.8
ALP [8]: 1880 IU/L
ALT [8]: 45.6 IU/L
AST [8]: 75.8 IU/L
BUN [8]: 15.6 mg/dL
CRE [8]: 0.2 mg/dL
Ca [8]: 11.1 mg/dL
Cl [8]: 107 meq/L
DBIL [8]: 0.016 mg/dL
GLC [8]: 181.6 mg/dL
IP [8]: 7.7 mg/dL
K [8]: 4.2 meq/L
LDH [8]: 76 IU/L
Na [8]: 141.4 meq/L
PL [8]: 135 mg/dL
RALB [8]: 2.6 g/dL
TBIL [8]: 0.06 mg/dL
TC [8]: 75.4 mg/dL
TG [8]: 52.2 mg/dL
TP [8]: 5.6 g/dL
gamma-GTP [8]: 0.6 IU/L
